Results on four molecules are retold here after article PMC2933066 (Bioorganic & medicinal chemistry letters, 2010).

Converted amounts (≈) assume the structure as drawn.

In one assay the test system is tubulin. The assay is classed as biochemical. The note with it: read-out: Inhibition of tubulin assembly IC50 (μM) ± SD.
Assay [1] concerns A549 (human lung adenocarcinoma). The note with it: cited from earlier work.
Assay [2] concerns KB (human epidermoid carcinoma of the nasopharynx). The note with it: cited from earlier work.

Broadly, the IC50 is the concentration at which inhibition is half-maximal.

Regarding `CN[C@H]1CCc2cc(OC)c(O)c(OC)c2-c2ccc(SC)c(=O)cc21` [Compound 15], the IC50 in the assay with tubulin is above 40 µM.
For `CN[C@H]1CCc2cc(OC)c(OP(=O)(O)O)c(OC)c2-c2ccc(SC)c(=O)cc21` [Compound 16], in the assay on tubulin, the half-inhibitory concentration (IC50) was above 40 µM.
Take `COc1cc2c(c(OC)c1O)-c1ccc(SC)c(=O)cc1C(NC(C)=O)CC2` (centres unmarked) [Compound 3, 2-Demethylthiocolchicine]: in assay [1], the “ED50 against A549” value is 0.01 µg/mL (≈ 0.0249 µM). In addition, the “ED50 against KB” value in assay [2] is 0.01 µg/mL (≈ 0.0249 µM).
As to `CCCN([C@H]1CCc2cc(OC)c(OC)c(OC)c2-c2ccc(SC)c(=O)cc21)S(=O)(=O)c1ccccc1[N+](=O)[O-]` [Compound 13], the IC50 with tubulin was above 40 µM.
